From patent US11873295B2, “Allosteric chromenone inhibitors of phosphoinositide 3-kinase (PI3K) for the treatment of disease” (Petra Pharma Corporation, priority 2021, dated 2024) come the findings set out here.

Bounds are passed on as bounds.

In assay [1] the target is T1, human full length PIK3KA Wild-type (p110α/p85α complex) (Homo sapiens, UniProt P42336).
T1 construct: Recombinant, catalytically active human full length PIK3KA Wild-type and H1047R mutant were purchased as 1:1 complex; 6xHis (N); purchased EMD Millipore Sigma 14-602M
Briefly: PI3K-alpha kinase (PIK3CA) biochemical activity, wild-type, ADP-Glo. The conditions noted are these: PI3K-α (PIK3CA) biochemical, Soy PI lipid substrate. A digest of the protocol: (§1)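 Full-length His-p110α/p85α complex, wild-type or H1047R, 1–5 nM, preincubated with compound 1 h at 27 °C in HEPES pH 7.4, 25 mM MgCl2, 0.01% Triton X-100, 1% DMSO. Reaction with 20 μM ATP and 50 μM PIP2diC8 or soy PI at 27 °C to ~10% ATP conversion; ADP-Glo luminescence. IC50 from 10-point four-parameter logistic fit.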

Assay [2] has as its system PI3K-α (PIK3CA) in MDA-MB-453 cells. Briefly: PI3K-alpha kinase (PIK3CA) activity in vitro cell based assay, MDA-MB-453 cells, AlphaLisa SureFire. The conditions noted are these: Homo sapiens, MDA-MB-453, 3 h, 0% FBS, 3 hours treatment, relative IC50. Here is the method: PI3K-Alpha Kinase (PIK3CA) Activity In Vitro Cell Based Assay and Determining IC50 Values for Inhibitors
The MDA-MB-453 (ATCC-HTB-131) cell line was obtained from the American Type Culture Collection (Manassas, VA). Cells were maintained in Dulbecco's Modified Eagle Media (DMEM, Gibco 11965-092) supplemented with 10% Fetal Bovine Serum, heat inactivated (FBS HI, Gibco 10082-147), 1× non-essential amino acids (NEAA, Gibco 11140-050), and 1 mM sodium pyruvate (Gibco 11360-070). Cultures were maintained in a humidified incubator at 37° C. under 5% CO2/95% air.
For compound testing in 0% FBS, MDA-MB-453 cells were seeded at a density of 1.5×10^4 cells per well in white 384-well plates in 20 μl of Minimum Essential Media (MEM) assay media with 1×NEAA, 1 mM sodium pyruvate, and 1 μg/mL human insulin (Sigma I9278). Compounds dissolved in 10 mM stock solutions in DMSO were serially diluted 1:3 in DMSO to generate a 10-point dilution series and plated using an acoustic liquid handler system (Echo 550 Series Liquid Handler, Labcyte). A 5× intermediate compound dilution plate in MEM with 1×NEAA and 1 mM sodium pyruvate (150 μM starting compound concentration in 1.5% DMSO) was then prepared. Five μl of the intermediate serially diluted compounds were added to the cell plate to final concentrations ranging from […] in 0.3% DMSO. 0.3% DMSO alone was used to establish the maximum (MAX) signal and GDC-0032 at a final concentration of 1 μM was used as a reference compound for the minimum (MIN) signal. After 3 hours treatment, the medium was removed, and the cells lysed in 10 μL of 1× SureFire Lysis buffer with shaking for 10 minutes at room temperature. The Acceptor Mix (Reaction Buffer 1+Reaction Buffer 2+Activation Buffer+SureFire Ultra Acceptor Beads) was prepared by diluting Activation buffer 25-fold in combined Reaction Buffer 1 and Reaction Buffer 2. The Acceptor beads were diluted 50-fold in the combined Reaction Buffers. Five μL of Acceptor Mix was added to each well, the plate was sealed and covered with foil and incubated for 1 hour at room temperature. The Donor Mix (dilution buffer+SureFire Ultra Donor Beads) was prepared by diluting Donor Beads 50-fold in dilution buffer. Five μL of the Donor Mix was added to each well and the plate sealed and covered with foil and incubated for 1 hour at room temperature in the dark. The plates were read on a Neo2 plate reader instrument from Biotek using standard AlphaLisa settings. Compounds were tested in duplicate and the average % inhibition at each compound concentration was used to generate a single dose response curve. The data were processed using the Genedata-Screener tool. Relative IC50 values were determined using luminescence units by calculating percent inhibition with respect to the in-plate “MIN” (GDC-0032 reference control) and “MAX” (DMSO) controls. The data was analyzed using a 4-parameter nonlinear logistic equation (four-parameter logistic concentration-response curve): Y=bottom+[(top−bottom)/1+(X/IC50)slope] where Y=% inhibition, X=concentration of inhibitor, bottom=minimum value of y attained by curve-fit, top=maximum value of y attained by curve-fit and slope=steepness of curve at the IC50. % Inhibition=[(signal at X−median Min)/(median Max−median Min)]×100 IC50: concentration of compound that reduces a given response (ligand binding, enzyme response) by 50%. Relative IC50: concentration giving half the compound's maximum response.
For IC50 values shown in Table B, “A” means IC50<50 nM; “B” means IC50 ranging between 50 nM and 100 nM; “C” means IC50 ranging between 100 nM and 500 nM; “D” means IC50>500 nM.

The target of assay [3] is T2, human full length PIK3KA H1047R mutant (p110α/p85α complex) (Homo sapiens, UniProt P42336, H1047R).
T2 construct: Recombinant, catalytically active human full length PIK3KA Wild-type and H1047R mutant were purchased as 1:1 complex; 6xHis (N); purchased EMD Millipore Sigma 14-792M
Briefly: PI3K-alpha kinase (PIK3CA) biochemical activity, H1047R mutant, ADP-Glo. The conditions noted are these: PI3K-α (PIK3CA) biochemical, H1047R mutant, Soy PI lipid substrate. Put shortly: as §1

T2 sequence (P42336 whole entry H1047R): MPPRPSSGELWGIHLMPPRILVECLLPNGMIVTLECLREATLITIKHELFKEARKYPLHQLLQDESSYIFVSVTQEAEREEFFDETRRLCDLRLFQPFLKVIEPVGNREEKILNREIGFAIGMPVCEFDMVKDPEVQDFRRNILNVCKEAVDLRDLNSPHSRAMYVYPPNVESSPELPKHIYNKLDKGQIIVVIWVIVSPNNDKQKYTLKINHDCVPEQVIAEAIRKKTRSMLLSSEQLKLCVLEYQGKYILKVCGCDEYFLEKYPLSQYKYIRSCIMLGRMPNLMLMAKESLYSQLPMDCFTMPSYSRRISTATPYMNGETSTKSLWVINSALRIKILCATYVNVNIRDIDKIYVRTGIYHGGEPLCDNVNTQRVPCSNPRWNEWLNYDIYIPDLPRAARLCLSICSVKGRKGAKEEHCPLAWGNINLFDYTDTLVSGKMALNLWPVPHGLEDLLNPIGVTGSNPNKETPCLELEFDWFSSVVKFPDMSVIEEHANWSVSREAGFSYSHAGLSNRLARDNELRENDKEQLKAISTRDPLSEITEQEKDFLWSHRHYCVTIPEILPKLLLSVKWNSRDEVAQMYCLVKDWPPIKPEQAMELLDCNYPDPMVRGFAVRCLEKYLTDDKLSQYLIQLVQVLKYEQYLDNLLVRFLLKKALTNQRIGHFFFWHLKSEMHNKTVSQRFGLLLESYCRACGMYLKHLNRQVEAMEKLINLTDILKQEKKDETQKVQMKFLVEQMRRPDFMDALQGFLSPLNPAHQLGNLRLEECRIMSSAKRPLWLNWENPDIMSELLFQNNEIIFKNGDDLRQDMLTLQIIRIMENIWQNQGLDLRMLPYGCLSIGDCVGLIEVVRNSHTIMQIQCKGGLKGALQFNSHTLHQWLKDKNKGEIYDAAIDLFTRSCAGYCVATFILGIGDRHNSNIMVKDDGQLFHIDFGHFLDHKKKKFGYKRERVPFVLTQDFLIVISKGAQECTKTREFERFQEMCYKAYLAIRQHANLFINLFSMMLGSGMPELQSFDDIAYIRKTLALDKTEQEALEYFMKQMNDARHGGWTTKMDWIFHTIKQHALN
T2 sequence (P27986 whole entry partner): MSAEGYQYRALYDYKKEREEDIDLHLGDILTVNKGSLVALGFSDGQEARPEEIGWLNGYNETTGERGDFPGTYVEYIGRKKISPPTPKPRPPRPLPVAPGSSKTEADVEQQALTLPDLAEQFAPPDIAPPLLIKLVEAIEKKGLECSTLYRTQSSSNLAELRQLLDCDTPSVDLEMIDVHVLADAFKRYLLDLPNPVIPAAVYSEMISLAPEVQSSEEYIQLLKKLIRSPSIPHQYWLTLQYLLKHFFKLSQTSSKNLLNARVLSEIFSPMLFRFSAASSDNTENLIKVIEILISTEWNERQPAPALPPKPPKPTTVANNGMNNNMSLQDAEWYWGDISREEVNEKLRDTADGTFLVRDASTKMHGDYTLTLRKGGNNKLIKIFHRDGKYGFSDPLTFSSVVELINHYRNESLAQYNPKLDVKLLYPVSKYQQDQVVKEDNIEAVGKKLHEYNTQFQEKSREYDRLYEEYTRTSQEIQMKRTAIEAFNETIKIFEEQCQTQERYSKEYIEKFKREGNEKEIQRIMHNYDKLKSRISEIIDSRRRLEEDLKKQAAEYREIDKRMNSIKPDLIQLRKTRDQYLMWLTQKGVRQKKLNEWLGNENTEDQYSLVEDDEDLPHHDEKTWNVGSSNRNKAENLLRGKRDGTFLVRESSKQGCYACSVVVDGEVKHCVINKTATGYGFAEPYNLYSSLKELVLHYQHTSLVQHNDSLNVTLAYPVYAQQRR

On to `Cc1cc([C@@H](C)Nc2ccccc2C(=O)O)c2oc(-c3ccc(C#N)cc3)c(C)c(=O)c2c1` [Example 31, 2-[[(1R)-1-[2-(4-Cyanophenyl)-3,6-dimethyl-4-oxo-chromen-8-yl]ethyl]amino]benzoic acid], for which the IC50 in assay [1] was 1000 to 5000 nM; in assay [2], < 50 nM; in assay [3] it was < 500 nM.

For `Cc1cc([C@@H](C)Nc2ccccc2C(=O)O)c2oc(-c3ccc(-c4ncco4)cc3)cc(=O)c2c1` [Example 32, 2-[[(1R)-1-[6-Methyl-2-(4-oxazol-2-ylphenyl)-4-oxo-chromen-8-yl]ethyl]amino]benzoic acid], the half-maximal inhibitory concentration (IC50) in assay [1] is 5000 to 10000 nM; in assay [2], < 50 nM; in assay [3], < 500 nM.

As for `Cc1cc([C@@H](C)Nc2ccc(C(F)(F)F)cc2C(=O)O)c2oc(-c3ccccc3)cc(=O)c2c1` [Example 33, 2-[[(1R)-1-(6-Methyl-4-oxo-2-phenyl-chromen-8-yl)ethyl]amino]-5-(trifluoromethyl)benzoic acid], the IC50 was 5000 to 10000 nM in assay [1], 100 to 500 nM in assay [2] and < 500 nM in assay [3].

As to `Cc1cc([C@@H](C)Nc2ccc(Br)nc2C(=O)O)c2oc(-c3ccccc3)c(C)c(=O)c2c1` [Example 35, 6-Bromo-3-[[(1R)-1-(3,6-dimethyl-4-oxo-2-phenyl-chromen-8-yl)ethyl]amino]-pyridine-2-carboxylic acid], the IC50 in assay [1] was 1000 to 5000 nM; in assay [2], < 50 nM; in assay [3], < 500 nM.

As for `Cc1cc([C@@H](C)Nc2cccnc2C(=O)O)c2oc(-c3ccccc3)c(C)c(=O)c2c1` [Example 36, 3-[[(1R)-1-(3,6-Dimethyl-4-oxo-2-phenyl-chromen-8-yl)ethyl]amino]-pyridine-2-carboxylic acid], the IC50 in assay [1] was 5000 to 10000 nM; in assay [2], 50 to 100 nM; in assay [3] it was 500 to 1000 nM.

As for `Cc1cc([C@@H](C)Nc2ccc(C(F)(F)F)cc2C(=O)O)c2oc(-c3ccccc3)c(C)c(=O)c2c1` [Example 37, 2-[[(1R)-1-(3,6-Dimethyl-4-oxo-2-phenyl-chromen-8-yl)ethyl]amino]-5-(trifluoromethyl)benzoic acid], the concentration for half-maximal inhibition (IC50) in assay [1] was 1000 to 5000 nM; in assay [2] it was 100 to 500 nM; in assay [3], 500 to 1000 nM.

Consider `Cc1cc([C@@H](C)Nc2ccc(F)c(F)c2C(=O)O)c2oc(-c3ccccc3)c(C)c(=O)c2c1` [Example 38, 6-[[(1R)-1-(3,6-Dimethyl-4-oxo-2-phenyl-chromen-8-yl)ethyl]amino]-2,3-difluoro-benzoic acid], for which the IC50 was < 500 nM in assay [1], < 50 nM in assay [2] and < 500 nM in assay [3].

On to `Cc1cc([C@@H](C)Nc2ccc(C)nc2C(=O)O)c2oc(-c3ccccc3)c(C)c(=O)c2c1` [Example 39, 3-[[(1R)-1-(3,6-Dimethyl-4-oxo-2-phenyl-chromen-8-yl)ethyl]amino]-6-methyl-pyridine-2-carboxylic acid], for which the IC50 is 1000 to 5000 nM in assay [1], < 50 nM in assay [2] and < 500 nM in assay [3].

As for `Cc1cc([C@@H](C)Nc2ccc(C3CC3)nc2C(=O)O)c2oc(-c3ccccc3)c(C)c(=O)c2c1` [Example 40, 6-Cyclopropyl-3-[[(1R)-1-(3,6-dimethyl-4-oxo-2-phenyl-chromen-8-yl)ethyl]amino]-pyridine-2-carboxylic acid], the 50% inhibitory concentration (IC50) in assay [1] was 5000 to 10000 nM; in assay [2], 50 to 100 nM; in assay [3] it was < 500 nM.

As for `Cc1cc([C@@H](C)Nc2ccc(Cl)cc2C(=O)O)c2oc(-c3ccccc3)c(C)c(=O)c2c1` [Example 41, 5-Chloro-2-[[(1R)-1-(3,6-dimethyl-4-oxo-2-phenyl-chromen-8-yl)ethyl]amino]benzoic acid], the IC50 in assay [1] was 1000 to 5000 nM; in assay [2] it was < 50 nM; in assay [3], < 500 nM.

In the case of `Cc1cc([C@@H](C)Nc2ccc(Cl)c(F)c2C(=O)O)c2oc(-c3ccccc3)c(C)c(=O)c2c1` [Example 42, 3-Chloro-6-[[(1R)-1-(3,6-dimethyl-4-oxo-2-phenyl-chromen-8-yl)ethyl]amino]-2-fluoro-benzoic acid], the IC50 was 500 to 1000 nM in assay [1], < 50 nM in assay [2] and < 500 nM in assay [3].

For `Cc1cc([C@@H](C)Nc2ccc(C)c(F)c2C(=O)O)c2oc(-c3ccccc3)c(C)c(=O)c2c1` [Example 43, 6-[[(1R)-1-(3,6-Dimethyl-4-oxo-2-phenyl-chromen-8-yl)ethyl]amino]-2-fluoro-3-methyl-benzoic acid], the figures for the 50% inhibitory concentration (IC50) in assay [1], in assay [2] and in assay [3] were 1000 to 5000 nM, 50 to 100 nM and < 500 nM, respectively.

For the compound `Cc1cc([C@@H](C)Nc2ccccc2C(=O)O)c2oc(-c3ccccc3F)c(C)c(=O)c2c1` [Example 44, 2-[[(1R)-1-[2-(2-Fluorophenyl)-3,6-dimethyl-4-oxo-chromen-8-yl]ethyl]amino]benzoic acid], the IC50 in assay [1] is 1000 to 5000 nM; in assay [2] it was < 50 nM; in assay [3], < 500 nM.

As to `Cc1cc([C@@H](C)Nc2ccc(F)cc2C(=O)O)c2oc(-c3ccccc3)c(C)c(=O)c2c1` [Example 58, 2-[[(1R)-1-(3,6-Dimethyl-4-oxo-2-phenyl-chromen-8-yl)ethyl]amino]-5-fluoro-benzoic acid], the half-maximal inhibitory concentration (IC50) in assay [1] is < 500 nM; in assay [2], < 50 nM; in assay [3] it was < 500 nM.

Take `COc1cccc(-c2cc(=O)c3cc(C)cc([C@@H](C)Nc4ccccc4C(=O)O)c3o2)c1` [Example 60, 2-[[(1R)-1-[2-(3-Methoxyphenyl)-6-methyl-4-oxo-chromen-8-yl]ethyl]amino]benzoic acid 2,2,2-trifluoroacetic acid]: the half-maximal inhibitory concentration (IC50) is 500 to 1000 nM in assay [1], < 50 nM in assay [2] and < 500 nM in assay [3].

Take `Cc1cc([C@@H](C)Nc2ccccc2C(=O)O)c2oc(-c3ccc(F)c(F)c3)cc(=O)c2c1` [Example 63, 2-[[(1R)-1-[2-(3,4-DifIuorophenyl)-6-methyl-4-oxo-chromen-8-yl]ethyl]amino]benzoic acid 2,2,2-trifluoroacetic acid]: the IC50 was 1000 to 5000 nM in assay [1], < 50 nM in assay [2] and < 500 nM in assay [3].

As for `COc1ccc(-c2cc(=O)c3cc(C)cc([C@@H](C)Nc4ccccc4C(=O)O)c3o2)cc1` [Example 66, 2-[[(1R)-1-[2-(4-Methoxyphenyl)-6-methyl-4-oxo-chromen-8-yl]ethyl]amino]benzoic acid 2,2,2-trifluoroacetic acid], the IC50 is 1000 to 5000 nM in assay [1], < 50 nM in assay [2] and < 500 nM in assay [3].

Turning to `COc1ccccc1-c1cc(=O)c2cc(C)cc([C@@H](C)Nc3ccccc3C(=O)O)c2o1` [Example 67, 2-[[(1R)-1-[2-(2-Methoxyphenyl)-6-methyl-4-oxo-chromen-8-yl]ethyl]amino]benzoic acid 2,2,2-trifluoroacetic acid], the IC50 is > 10000 nM in assay [1], 50 to 100 nM in assay [2] and < 500 nM in assay [3].
